Data published in PubChem BioAssay AID1963826 (Molecular Pharmacology Branch, DTP, NCI, 2024).

System: 926638-142-R-J1-PDC complex spheroid viability
Test: Anticancer human tumor 926638-142-R-J1-PDC patient-derived endometrial carcinoma cell line growth inhibition [POLQ]
Details: for IC50: curve of first compound; for viability, T/C: stronger effect = lower value; active = viability on the fitted dose curve at most 10% of control; inactive = the rest
Summary of the method: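 Patient-derived tumour cells were co-cultured with HUVEC and mesenchymal stem cells as multicellular spheroids at 37 °C. They were treated with POLQ inhibitors (novobiocin, ART-558, RP6685) alone or combined with other agents. Top concentrations were at or near clinical Cmax (otherwise 10 microM; SN-38 at 1 microM), decreasing in half-log steps.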
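Also: spheroids exposed to drugs for one week before readout.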
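For viability, T/C in this document: percent viability relative to DMSO vehicle control wells set as 100%.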

C=CCn1c(=O)c2cnc(Nc3ccc(N4CCN(C)CC4)cc3)nc2n1-c1cccc(C(C)(C)O)n1 + Cc1cccc(N(C)C(=O)C2C(O)CCN2c2nc(C)cc(C(F)(F)F)c2C#N)c1
714 nM: IC50 (second compound 0.1 µM)
276 nM: IC50 (second compound 10 µM)
374 nM: IC50 (second compound 3.16 µM)
390 nM: IC50 (second compound 0.0316 µM)
inactive: viability, T/C (second compound 0.0316 µM, first compound 0.00316 µM) 92% | viability, T/C (second compound 0.0316 µM, first compound 0.01 µM) 80.1% | viability, T/C (second compound 0.0316 µM, first compound 0.0316 µM) 90% | viability, T/C (second compound 0.0316 µM, first compound 0.1 µM) 64.9% | viability, T/C (second compound 0.0316 µM, first compound 0.316 µM) 55.6% | viability, T/C (second compound 0.0316 µM, first compound 1 µM) 34% | viability, T/C (second compound 0.1 µM, first compound 0.00316 µM) 106% | viability, T/C (second compound 0.1 µM, first compound 0.01 µM) 98.3% | viability, T/C (second compound 0.1 µM, first compound 0.0316 µM) 88.7% | viability, T/C (second compound 0.1 µM, first compound 0.1 µM) 77.2% | viability, T/C (second compound 0.1 µM, first compound 0.316 µM) 57.8% | viability, T/C (second compound 0.1 µM, first compound 1 µM) 46.6% | viability, T/C (second compound 0.316 µM, first compound 0.00316 µM) 102% | viability, T/C (second compound 0.316 µM, first compound 0.01 µM) 94.4% | viability, T/C (second compound 0.316 µM, first compound 0.0316 µM) 71.6% | viability, T/C (second compound 0.316 µM, first compound 0.1 µM) 61.2% | viability, T/C (second compound 0.316 µM, first compound 0.316 µM) 54.7% | viability, T/C (second compound 0.316 µM, first compound 1 µM) 37% | viability, T/C (second compound 1 µM, first compound 0.00316 µM) 109% | viability, T/C (second compound 1 µM, first compound 0.01 µM) 91.5% | viability, T/C (second compound 1 µM, first compound 0.0316 µM) 76.1% | viability, T/C (second compound 1 µM, first compound 0.1 µM) 81.1% | viability, T/C (second compound 1 µM, first compound 0.316 µM) 60.8% | viability, T/C (second compound 1 µM, first compound 1 µM) 40.8% | viability, T/C (second compound 3.16 µM, first compound 0.00316 µM) 87.7% | viability, T/C (second compound 3.16 µM, first compound 0.01 µM) 99.6% | viability, T/C (second compound 3.16 µM, first compound 0.0316 µM) 81.2% | viability, T/C (second compound 3.16 µM, first compound 0.1 µM) 78.8% | viability, T/C (second compound 3.16 µM, first compound 0.316 µM) 51.1% | viability, T/C (second compound 3.16 µM, first compound 1 µM) 36.9% | viability, T/C (second compound 10 µM, first compound 0.00316 µM) 79.5% | viability, T/C (second compound 10 µM, first compound 0.01 µM) 78.9% | viability, T/C (second compound 10 µM, first compound 0.0316 µM) 72.8% | viability, T/C (second compound 10 µM, first compound 0.1 µM) 76.2% | viability, T/C (second compound 10 µM, first compound 0.316 µM) 46.5% | viability, T/C (second compound 10 µM, first compound 1 µM) 37.7%
321 nM: IC50 (second compound 0.316 µM)
627 nM: IC50 (second compound 1 µM)
